Laboratory results published in ChEMBL document CHEMBL1201862, “PubChem BioAssay data set” (2004).
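Tested at 5 concentrations; 48 h exposure; 96-well plates; endpoints linearly interpolated, else capped at highest concentration. GI50 = concentration required for 50% inhibition of growth.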 Active and inactive are the calls of the source. No stated cut-off is given here; in the data, active = GI50 up to about 1.1 µM and inactive = higher.

Experiments:
Assay in all cases: inhibition of tumour cell growth, NCI panel, 48 h
SN12C = system: SN12C
MOLT-4 = system: MOLT-4
SK-OV-3 = system: SK-OV-3
SK-MEL-5 = system: SK-MEL-5
HCT-15 = system: HCT-15
HOP-62 = system: HOP-62
NCI-H460 = system: NCI-H460
A549 = system: A549
OVCAR-4 = system: OVCAR-4
HT-29 = system: HT-29
SR = system: SR
HOP-92 = system: HOP-92
SF-295 = system: SF-295
UACC-62 = system: UACC-62
SNB-19 = system: SNB-19
TK-10 = system: TK-10
SK-MEL-28 = system: SK-MEL-28
MDA-N = system: MDA-N
DU-145 = system: DU-145
A498 = system: A498

| SMILES | GI50 (SN12C) | GI50 (MOLT-4) | GI50 (SK-OV-3) | GI50 (SK-MEL-5) | GI50 (HCT-15) | GI50 (HOP-62) | GI50 (NCI-H460) | GI50 (A549) | GI50 (OVCAR-4) | GI50 (HT-29) | GI50 (SR) | GI50 (HOP-92) | GI50 (SF-295) | GI50 (UACC-62) | GI50 (SNB-19) | GI50 (TK-10) | GI50 (SK-MEL-28) | GI50 (MDA-N) | GI50 (DU-145) | GI50 (A498) |
| --- | --- | --- | --- | --- | --- | --- | --- | --- | --- | --- | --- | --- | --- | --- | --- | --- | --- | --- | --- | --- |
| CCOC(=O)C(=NN(C)c1ncccc1N)C(=O)OCC | 24.7 µM (inactive) | 21.5 µM (inactive) | > 100 µM (inactive) | 68.4 µM (inactive) | 32.9 µM | > 100 µM (inactive) | > 100 µM (inactive) | > 100 µM (inactive) | 97.3 µM (inactive) | 65.6 µM (inactive) | 36.2 µM (inactive) | 23.3 µM (inactive) | > 100 µM (inactive) | > 100 µM (inactive) | > 100 µM (inactive) | 79.3 µM (inactive) | > 100 µM (inactive) | 34.8 µM (inactive) | > 100 µM (inactive) | 39.8 µM (inactive) |
| CCOC(=O)N1CCN(c2ccc3c(C)cc(C)nc3n2)CC1 | > 100 µM (inactive) | > 100 µM (inactive) | > 100 µM (inactive) | > 100 µM (inactive) | > 100 µM | > 100 µM (inactive) | > 100 µM (inactive) | > 100 µM (inactive) | > 100 µM (inactive) | > 100 µM (inactive) | > 100 µM (inactive) | > 100 µM (inactive) | > 100 µM (inactive) | > 100 µM (inactive) | > 100 µM (inactive) | > 100 µM (inactive) | > 100 µM (inactive) | > 100 µM (inactive) | > 100 µM (inactive) | > 100 µM (inactive) |
| O=C(O)COc1cc(-c2ccccc2)nc2ccc(F)cc12 | > 100 µM (inactive) | > 100 µM (inactive) | > 100 µM (inactive) | > 100 µM (inactive) | > 100 µM | > 100 µM (inactive) | > 100 µM (inactive) | > 100 µM (inactive) | > 100 µM (inactive) | > 100 µM (inactive) | > 100 µM (inactive) | > 100 µM (inactive) | > 100 µM (inactive) | > 100 µM (inactive) | > 100 µM (inactive) | 0.0261 µM (active) | > 100 µM (inactive) | > 100 µM (inactive) | > 100 µM (inactive) | > 100 µM (inactive) |
| COc1ccc2c(c1)C1=NCCN(CCN(C)C)c3ccc([N+](=O)[O-])c(c31)N2 | 0.568 µM (active) | 0.355 µM (active) | 0.259 µM (active) | 0.845 µM (active) | 0.395 µM | 1.21 µM (inactive) | 0.354 µM (active) | 0.417 µM (active) | 0.191 µM (active) | 0.348 µM (active) | 0.404 µM (active) | 0.603 µM (active) | 0.35 µM (active) | 0.535 µM (active) | 0.492 µM (active) | 1.1 µM (active) | 1.28 µM (inactive) | 0.542 µM (active) | 0.48 µM (active) | 1.59 µM (inactive) |
| C[N+](C)(C)CC(=O)N/N=C(\C(=O)NC1=C(Cl)C(=O)c2ccccc2C1=O)C(C#N)c1nc(-c2ccc([N+](=O)[O-])cc2)cs1 (centres undefined) | 9.42 µM (inactive) | 13.4 µM (inactive) | 21.1 µM (inactive) | 1.13 µM (inactive) | 5.36 µM | 12.7 µM (inactive) | 4.31 µM (inactive) | 4.54 µM (inactive) | 10.1 µM (inactive) | 8.38 µM (inactive) | 5.62 µM (inactive) | 13 µM (inactive) | 6.37 µM (inactive) | 3.83 µM (inactive) | 12.9 µM (inactive) | 31 µM (inactive) | 6.1 µM (inactive) | 1.74 µM (inactive) | 6.08 µM (inactive) | 16.9 µM (inactive) |
| CC(C)C(C/C=C1/CC(CO)(COC(=O)C2CCCCC2)OC1=O)C(C)C (centres undefined) | 16.8 µM (inactive) | 17.8 µM (inactive) | > 100 µM (inactive) | 18.3 µM (inactive) | 21.6 µM | 11.7 µM (inactive) | 20.2 µM (inactive) | 12.5 µM (inactive) | 19.8 µM (inactive) | 27.9 µM (inactive) | 28 µM (inactive) | 13.6 µM (inactive) | 14.2 µM (inactive) | 89.9 µM (inactive) | 15 µM (inactive) | 16.8 µM (inactive) | 18.6 µM (inactive) | 19.1 µM (inactive) | 13.2 µM (inactive) | 20.4 µM (inactive) |
| Cc1ccc2c(O)cc(-c3cccc(Cl)c3)nc2n1 |  | < 0.0229 µM (active) | 0.0411 µM (active) | < 0.0177 µM (active) | < 0.0192 µM | 0.0305 µM (active) | < 0.0204 µM (active) | 0.0325 µM (active) | > 62.1 µM (inactive) | < 0.0179 µM (active) | 0.0266 µM (active) | 1.25 µM (inactive) | < 0.0151 µM (active) | < 0.01 µM (active) | 0.0705 µM (active) | > 59.8 µM (inactive) | 0.0916 µM (active) | 1 µM (active) | 0.194 µM (active) | 0.0333 µM (active) |
